Assay results from patent EP4491190A1, “SMALL PROTEINS FOR USE AS SENOLYTIC AND SENOMORPHIC AGENTS” (Fundación Imdea Alimentación, priority 2023, dated 2025).

What was measured:
Format in all cases: cell-based, human
[1] = system: SKMel-103, A549, Huh7, SH-SY5Y cells; assay: MTT cell viability in different models of cellular senescence and cancer cell lines; settings: senescent cancerous cell lines, senescence by doxorubicin, bleomycin or palbociclib
Description: (§1) Cells were plated in 96 well plates at a density of 3×10^3-8×10^3 cells/well (proliferative) or 8×10^3-10×10^3 cells/well (senescent). An MTT assay (Sigma-Aldrich, Merck KGaA, Darmstadt, Germany) was used to measure cell viability after 48-96 h of treatments. Briefly, MTT was diluted in 0.1 M phosphate buffered saline (PBS) and added to cells grown in 96-well plates at a final concentration of 0.5 mg/ml. After incubation for 2-4 hr at 37°C with MTT, the culture medium was removed. The precipitated formazan was solubilized with dimethyl sulfoxide (DMSO). Absorbance was measured at 570 nm using a microplate reader (Victor Nivo; Perkin Elmer, Hamburg, Germany). For these assays, the effects of vehicle or treatments were expressed as the % of change of the non-treated cells.
Next, it was evaluated the senolytic capacity of Tvs1 in different models of cellular senescence and cancer cell lines. For that purpose, chemotherapy known to induce cellular senescence by genotoxic damage (doxorubicin and bleomycin) or by inhibiting cyclin-dependent kinases (palbociclib) was used. Cellular models of melanoma, lung adenocarcinoma (A549), hepatoma (Huh7) and neuroblastoma (SH-SY5Y) were used. Tvs1G consistently produced a senolytic effect in all the cancerous cell lines tested independently of the stimulus for achieving cellular senescence (Figure 2, Figures 4F, 4G, 4H). […]

[2] = system: senescent HGPS skin fibroblast; assay: Senolysis in HGPS skin fibroblasts (viability, β-galactosidase staining); settings: 48h
Description: All human cancer cell lines and the non-transformed fibroblast lines were maintained in a humidified incubator at 37°C and 5% CO2 and used between passages 4 and 15. All lines were frequently checked and ensured to be mycoplasma free. Cells were split twice a week and before archiving an 90% confluency. SKMel103, SH-SY5Y, Huh7, A549, U251 were donated from collaborators or obtained from the Translational Venomics' stock. Primary lung fibroblasts (PCS201013) and primary dermal fibroblasts (PCS201012) were purchased from ATCC (Manassas, VA, USA). Skin fibroblasts from Hutchinson-Gilford progeria syndrome donors were purchase from the Progeria Research Foundation (HGADFN 127, 143, 167, 178) or Coriell Institute (AG01972E, AG06917K and AG11513F). The cells were maintained following the recommendations of the cell banks.
Cells were plated in 96 well plates at a density of 3×10^3-8×10^3 cells/well (proliferative) or 8×10^3-10×10^3 cells/well (senescent). An MTT assay (Sigma-Aldrich, Merck KGaA, Darmstadt, Germany) was used to measure cell viability after 48-96 h of treatments. […] Absorbance was measured at 570 nm using a microplate reader (Victor Nivo; Perkin Elmer, Hamburg, Germany). For these assays, the effects of vehicle or treatments were expressed as the % of change of the non-treated cells. […]

SKMel-103 cells = assay: MTT cell viability assay in proliferative and palbociclib-induced senescent SKMel-103 cells
Description: as §1
Therefore, the MTT assay was used to measure cell viability in proliferative and senescent cells. The model of cellular senescence induced by cyclin-dependent kinases (CDK) inhibition with Palbociclib (Baughn, L. B., et al. A Novel Orally Active Small Molecule Potently Induces G1 Arrest in Primary Myeloma Cells and Prevents Tumor Growth by Specific Inhibition of Cyclin-Dependent Kinase 4/6. Cancer Research (2006), 66(15), 7661-7667; Fry, D. W. et al. Specific inhibition of cyclin-dependent kinase 4/6 by PD 0332991 and associated antitumor activity in human tumor xenografts. Molecular Cancer Therapeutics, (2004) 3(11), 1427-1438) was used. Palbociclib is a CDK inhibitor, which promotes many markers of cellular senescence (Klein, M. E., et al. CDK4/6 Inhibitors: The Mechanism of Action May Not Be as Simple as Once Thought. Cancer Cell, (2018) 34(1), 9-20; Llanos, S., et al. Lysosomal trapping of palbociclib and its functional implications. Oncogene, (2019) 38(20), 3886-3902), including an enlarged and flattened cell shape and an enhanced senescence-associated β-galactosidase (SA-β-gal) activity (Figure 1A). Treatment with increasing concentrations of Tvs1 (0.1 nM to 3 µM) led to a dose-dependent reduction in viability of SKMel103 cells (Figure 1B). […]

Compound | senolytic effect [1] | senolysis / viability [2] | senolytic effect (SKMel-103 cells; tested senescent melanoma cells) | EC50 (SKMel-103 cells; Homo sapiens, SK-MEL-103, palbociclib-induced senescent SKMel-103 cells, 48h treatment, read-out: EC50 (senolytic potency)) | SI (SKMel-103 cells; senolytic index, ratio of the IC50 in proliferative and senescent cells)
O=c1c(O)c(-c2ccc(O)c(O)c2)oc2cc(O)ccc12 [F, fisetin] | failed |  |  |  | 
O=c1c(O)c(-c2ccc(O)c(O)c2)oc2cc(O)cc(O)c12 [Q, quercetin] | failed |  |  |  | 
C[C@H]1O[C@@H](O[C@H]2[C@@H](O)C[C@H](O[C@H]3[C@@H](O)C[C@H](O[C@H]4CC[C@@]5(C)[C@H](CC[C@@H]6[C@@H]5C[C@@H](O)[C@]5(C)[C@@H](C7=CC(=O)OC7)CC[C@]65O)C4)O[C@@H]3C)O[C@@H]2C)C[C@H](O)[C@@H]1O [digoxin] |  | failed | not effective |  | 
CC1(C)CCC(c2ccc(Cl)cc2)=C(CN2CCN(c3ccc(C(=O)NS(=O)(=O)c4ccc(N[C@H](CCN5CCOCC5)CSc5ccccc5)c(S(=O)(=O)C(F)(F)F)c4)cc3)CC2)C1 [navitoclax] |  | failed |  | 400 nM | 22
